Experiments:
[1] = test system: Candida albicans ATCC 10231; assay: antifungal activity in vitro, serial dilution in RPMI 1640; format: cell-based
Procedure, shortened: (§1)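 Optical density at 531 nm served as the growth read-out. Values were plotted against compound concentration after serial dilution of each compound in RPMI 1640 medium buffered to pH 7.0, as in the M27-A2 yeast standard.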

[2] = test system: Candida glabrata DSM 11226; assay: as above; format: cell-based
Procedure, shortened: as §1

Candida krusei DSM 6128 = assay: as above; format: cell-based
Procedure, shortened: as §1

[3] = test system: Candida lusitaniae DSM 70102; assay: as above; format: cell-based
Procedure, shortened: as §1

[4] = test system: Candida tropicalis KKP 334; assay: as above; format: cell-based
Procedure, shortened: as §1

[5] = test system: Saccharomyces cerevisiae ATCC 9763; assay: as above; format: cell-based; details: RPMI 1640, pH 7.0; for Antifungal activity IC50: Saccharomyces cerevisiae ATCC 9763 (first head over MIC and IC50); for Antifungal activity MIC: Saccharomyces cerevisiae ATCC 9763
Procedure, shortened: as §1

Human erythrocytes = assay: hemotoxicity determination (hemolytic activity); format: cell-based
Procedure, shortened: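 Human erythrocytes (2×10^7/ml in saline) were incubated with serially diluted compound for 30 min at 37 °C and then centrifuged. Released haemoglobin was read at A540 against a 0.1% Triton X-100 full-lysis control. EH50 is the interpolated concentration giving 50% of the control A540.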

[6] = test system: Aspergillus niger LOCK E201; assay: antifungal activity in vitro, broader spectrum; format: cell-based
Protocol: (§2) For the determination of antifungal activity in vitro we used method of serial dilution in buffered medium RPMI 1640, pH 7.0, in a 96-wells microplates, according to the standard procedure (National Committee for Clinical Laboratory Standards. Reference method for broth dilution antifungal susceptibility testing of yeast, approved standard, 2nd ed. M27-A2 vol. 22 Wayne, Pa., 2002). The optical density of cells suspension was measured using a microplates reader (Victor^3, Perkin-Elmer) at the wavelength λ=531 nm (A531). On the basis of obtained results the diagrams of relation between A531 values and concentration of examined compound were made.
(§3) Obtained results are presented below in tables 2A and 2B.

Candida albicans SC 5314 = assay: antifungal activity in vitro, broader spectrum; format: cell-based
Protocol: as §2, §3

Candida arborea KKP 319 = assay: antifungal activity in vitro, broader spectrum; format: cell-based
Protocol: as §2, §3

[7] = test system: Candida dubliniensis CBS 7987; assay: antifungal activity in vitro, broader spectrum; format: cell-based
Protocol: as §2, §3

[8] = test system: Candida lipolytica KKP 322; assay: antifungal activity in vitro, broader spectrum; format: cell-based
Protocol: as §2, §3

[9] = test system: Candida parapsilosis DSM 5784; assay: antifungal activity in vitro, broader spectrum; format: cell-based
Protocol: as §2, §3

[10] = test system: Candida pseudotropicalis KKP 324; assay: antifungal activity in vitro, broader spectrum; format: cell-based
Protocol: as §2, §3

[11] = test system: Candida quilliermondii DSM 11947; assay: antifungal activity in vitro, broader spectrum; format: cell-based
Protocol: as §2, §3

[12] = test system: Candida stellatoidea CBS 1905; assay: antifungal activity in vitro, broader spectrum; format: cell-based
Protocol: as §2, §3

[13] = test system: Trichoderma viride LOCK E159; assay: antifungal activity in vitro, broader spectrum; format: cell-based
Protocol: as §2, §3

[14] = test system: Candida albicans clinical strain B3; assay: antifungal activity against MDR fungal strains and parents; format: cell-based; details: C. albicans B3, fluconazole sensitive, parent strain for B4
Protocol: as §2

[15] = test system: Candida albicans clinical strain B4 (CaMdr1p); assay: as above; format: cell-based; details: C. albicans B4 (CaMdr1p), fluconazole-resistant
Protocol: as §2

[16] = test system: Candida albicans clinical strain F2; assay: as above; format: cell-based; details: C. albicans F2, fluconazole sensitive, parent strain for F5
Protocol: as §2

[17] = test system: Candida albicans clinical strain F5 (CaMdr1p); assay: as above; format: cell-based; details: C. albicans F5 (CaMdr1p), fluconazole-resistant
Protocol: as §2

[18] = test system: Candida albicans clinical strain Gu4; assay: as above; format: cell-based; details: C. albicans Gu4, fluconazole sensitive, parent strain for Gu5
Protocol: as §2

[19] = test system: Candida albicans clinical strain Gu5 (CaCdr1p, CaCdr2p); assay: as above; format: cell-based; details: C. albicans Gu5 (CaCdr1p, CaCdr2p), fluconazole-resistant
Protocol: as §2

[20] = test system: Candida albicans strain 5674 (CaCdr1p, CaCdr2p); assay: as above; format: cell-based; details: C. albicans 5674 (CaCdr1p, CaCdr2p)
Protocol: as §2

[21] = test system: Candida albicans strain STY31; assay: as above; format: cell-based; details: C. albicans STY31, 5674 derivative, deletion of CDR1 and CDR2
Protocol: as §2

[22] = test system: Candida albicans strain STY7 (CaCdr1p); assay: as above; format: cell-based; details: C. albicans STY7 (CaCdr1p), 5674 derivative, deletion of CDR2
Protocol: as §2

CCRF-CEM cells = assay: cytotoxic activity against mammalian cells in tissue culture (MTT); format: cell-based, human
Protocol: (§4) All media contained 100 μg/ml of penicillin G and streptomycin. 24-wells microplates containing appropriate medium were inoculated with the cells in amount of 1.2×10^4 cells/well and allowed to stand overnight. Next, tested compounds as solution in dimethylsulfoxide (DMSO) were added in volume of 10 μl (serial 2× dilutions). To control well 10 μl of DMSO was added. Microplates with cell suspensions were incubated for 120 h at temperature 37° C. at atmosphere of 95%/5% CO2. After incubation, to all wells 200 μl of solution of 3-(4,5-dimethyltiazole-2-yl)-2,5-diphenylotetrazole bromide (MTT) in PBS (4 mg/ml) was added and plates were further incubated for 4 h at 37° C. Next, to dissolve crystals of formazane 1 ml of DMSO was added and absorption of solutions was measured at the wavelength λ=540 nm (A540), using a microplates reader (Victor^3, Perkin-Wallac). […] From these graphs IC50 values were read, that is concentration of tested compound in the presence at which A540 value is half of A540 value measured in the control sample.

HepG2 cells = assay: as above; format: cell-based, human
Protocol: as §4

LLC-PK1 cells = assay: as above; format: cell-based, pig
Protocol: as §4

| Structure (SMILES) | Antifungal activity MIC [1] [µg/mL] | Antifungal activity MIC [2] [µg/mL] | Antifungal activity MIC (Candida krusei DSM 6128) [µg/mL] | Antifungal activity MIC [3] [µg/mL] | Antifungal activity MIC [4] [µg/mL] | Antifungal activity IC50 [5] [µg/mL] | Antifungal activity MIC [5] [µg/mL] | Hemotoxi EH50 (Human erythrocytes) [µg/mL] | Antifungal activity MIC [6] [µg/mL] | Antifungal activity MIC (Candida albicans SC 5314) [µg/mL] | Antifungal activity MIC (Candida arborea KKP 319) [µg/mL] | Antifungal activity MIC [7] [µg/mL] | Antifungal activity MIC [8] [µg/mL] | Antifungal activity MIC [9] [µg/mL] | Antifungal activity MIC [10] [µg/mL] | Antifungal activity MIC [11] [µg/mL] | Antifungal activity MIC [12] [µg/mL] | Antifungal activity MIC [13] [µg/mL] | Antifungal activity MIC [14] [µg/mL] | Antifungal activity MIC [15] [µg/mL] | further results |
| --- | --- | --- | --- | --- | --- | --- | --- | --- | --- | --- | --- | --- | --- | --- | --- | --- | --- | --- | --- | --- | --- |
| C[C@@H]1[C@H](O)[C@@H](C)/C=C/C=C/C=C/C=C/C=C/C=C/C=C/[C@H](O[C@@H]2O[C@H](C)[C@@H](O)[C@H](NC(=O)[C@@H](N)Cc3ccc([N+](=O)[O-])cc3)[C@@H]2O)C[C@@H]2O[C@](O)(C[C@@H](O)C[C@@H](O)[C@H](O)CC[C@@H](O)C[C@@H](O)CC(=O)O[C@H]1C)C[C@H](O)[C@H]2C(=O)O [Compound A33, N-L-p-nitrophenylalanylamphotericin B] | 2 | 4 | 4 | 2 | 4 | 1.39 | 2 | >100 | 1 | 1 | 2 | 1 | 1 | 1 | 1 | 1 | 1 | 4 | 0.5 | 1 | Antifungal activity MIC [16]: 4 µg/mL; Antifungal activity MIC [17]: 8 µg/mL; Antifungal activity MIC [18]: 1 µg/mL; Antifungal activity MIC [19]: 1 µg/mL; Antifungal activity MIC [20]: 2 µg/mL; Antifungal activity MIC [21]: 0.5 µg/mL; Antifungal activity MIC [22]: 1 µg/mL; IC50 (cytotoxic activity) (CCRF-CEM cells): >100 µg/mL; IC50 (cytotoxic activity) (HepG2 cells): >100 µg/mL; IC50 (cytotoxic activity) (LLC-PK1 cells): >100 µg/mL |
| C[C@@H]1[C@H](O)[C@@H](C)/C=C/C=C/C=C/C=C/C=C/C=C/C=C/[C@H](O[C@@H]2O[C@H](C)[C@@H](O)[C@H](NC(=O)[C@H](N)Cc3cccnc3)[C@@H]2O)C[C@@H]2O[C@](O)(C[C@@H](O)C[C@@H](O)[C@H](O)CC[C@@H](O)C[C@@H](O)CC(=O)O[C@H]1C)C[C@H](O)[C@H]2C(=O)O [Compound A36, N-D-β-(pyridin-3-yl)alanylamphotericin B] | 2 | 4 | 4 | 2 | 2 | 0.53 | 1 | >100 | 0.5 | 1 | 4 | 1 | 2 | 2 | 1 | 1 | 2 | 4 | 0.5 | 4 | Antifungal activity MIC [16]: 4 µg/mL; Antifungal activity MIC [17]: 4 µg/mL; Antifungal activity MIC [18]: 1 µg/mL; Antifungal activity MIC [19]: 4 µg/mL; Antifungal activity MIC [20]: 0.5 µg/mL; Antifungal activity MIC [21]: 0.25 µg/mL; Antifungal activity MIC [22]: 0.5 µg/mL; IC50 (cytotoxic activity) (CCRF-CEM cells): >100 µg/mL; IC50 (cytotoxic activity) (HepG2 cells): >100 µg/mL; IC50 (cytotoxic activity) (LLC-PK1 cells): >100 µg/mL |
| C[C@@H]1[C@H](O)[C@@H](C)/C=C/C=C/C=C/C=C/C=C/C=C/C=C/[C@H](O[C@@H]2O[C@H](C)[C@@H](O)[C@H](NC(=O)[C@H](N)c3ccccc3)[C@@H]2O)C[C@@H]2O[C@](O)(C[C@@H](O)C[C@@H](O)[C@H](O)CC[C@@H](O)C[C@@H](O)CC(=O)O[C@H]1C)C[C@H](O)[C@H]2C(=O)O [Compound A41, N-D-phenylglycylamphotericin B] | 2 | 4 | 4 | 2 | 4 | 1.46 | 4 | >100 | 2 | 1 | 4 | 1 | 2 | 2 | 2 | 1 | 2 | 4 | 1 | 1 | Antifungal activity MIC [16]: 2 µg/mL; Antifungal activity MIC [17]: 4 µg/mL; Antifungal activity MIC [18]: 1 µg/mL; Antifungal activity MIC [19]: 1 µg/mL; Antifungal activity MIC [20]: 1 µg/mL; Antifungal activity MIC [21]: 1 µg/mL; Antifungal activity MIC [22]: 1 µg/mL; IC50 (cytotoxic activity) (CCRF-CEM cells): >100 µg/mL; IC50 (cytotoxic activity) (HepG2 cells): >100 µg/mL; IC50 (cytotoxic activity) (LLC-PK1 cells): >100 µg/mL |
